Literature values, collected in article PMC11206399, “In Vitro/In Vivo Correlation of Two Extended-Release Cilostazol Formulations” (Pharmaceuticals, 2024).
Values after ≈ are worked out from the molar mass of the structure shown. Blank lines part the entries; values can stand above or below the compound they belong to.

How the values were obtained:
[1] = design: method as in PMID 10702883; conditions: humans, oral 100 mg Cilostazol tablet
Caco-2 cell monolayer = tested on: Caco-2 cell monolayer; design: method as in PMID 14603510; conditions: Caco-2 cell monolayer model
[2] = design: method as in PMID 4074422
platelet aggregation = tested on: platelet aggregation; design: method as in doi:10.1111/j.1527-3466.1993.tb00200.x

increase of AUC of Cilostazol with high-fat breakfast compared with the fasted condition [1]: 25% | increase of Cmax of Cilostazol with high-fat breakfast compared with the fasted condition [1]: 90% | permeability coefficient (Caco-2 cell monolayer): above 1 × 10^−6 cm/s | water solubility [2]: 3.34 µg/mL (≈ 9.04 µM)
SMILES: O=C1CCc2cc(OCCCCc3nnnn3C3CCCCC3)ccc2N1 [Cilostazol]

SMILES: O=c1ccc2cc(OCCCCc3nnnn3C3CCCCC3)ccc2[nH]1 [OPC-13015, 3,4-dehydrocilostazol]
potency of inhibiting platelet aggregation compared with cilostazol (platelet aggregation): 3 fold

SMILES: O=C1CCc2cc(OCCCCc3nnnn3[C@H]3CC[C@H](O)CC3)ccc2N1 [OPC-13213, 4′-trans-hydroxy-cilostazol]
fold less potent than Cilostazol (inhibiting platelet aggregation) (platelet aggregation): 3 fold
